# Laboratory results taken from patent publication US12264173B2 (GILEAD SCIENCES, INC., priority 2020, dated 2025).
# Read-outs that look alike come from different tables or passages of the source.
# Columns and labels:
# Type in all cases: cell-based
# RSV strain A2 = experiment: microbe, parasite or virus in culture; details: read-out: RSV HEp-2 EC50
# Outline: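 Cytopathic-effect protection assay: HEp-2 cells (50,000/mL) infected with pre-titered RSV A2 onto 3-fold serial compound dilutions, incubated 4 days at 37° C. Cell viability read by CellTiter-Glo luminescence; percent inhibition derived against 0% and 100% virus-inhibition controls.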
# DENV2 replicon = experiment: DENV-2 Huh-7 Rep EC50 (replicon luminescence)
# Protocol: In 384 well plates (Greiner, Cat #781091), compounds were acoustically transferred at 200 nl per well in a 8 compound (4 replicates) or 40 compound dose response format (3 replicates). For all plates tested, Balapiravir, GS-5734 and NITD008 were included as positive inhibition controls alongside 0% inhibition, DMSO-only negative control wells. Following compound addition, Huh-7 cells containing the DENV2 replicon construct were harvested following standard cell culture procedures and were adjusted to a concentration of 1.25E5 cells/mL in cell culture media composed of cDMEM without genticin. 40 μL of the cell stock was then added to each well for a final cell density of 5,000 cells/well. Cell and compound mixtures were incubated at 37° C./5% CO2 for 48 hours. Prior to harvesting cells, EnduRen Live Cell Substrate (Promega, Cat #E6481) was prepared by suspending 3.4 mg into 100 uL of DMSO to generate a 60 mM stock solution. The stock solution was then diluted 1:200 in pre-warmed cDMEM and 10 uL of this diluted solution was added to each well of the 384 well plates. Plates were then centrifuged at 500 rpm briefly and were placed on a plate shaker for 2 min. Following mixing, plates were incubated at […] for 1.5 hours prior to measuring luminescence on an Envision luminometer.
# RSV A2 = experiment: RSV NHBE EC50 (RSV A2 antiviral assay in NHBE cells); details: read-out: RSV NHBE EC50
# Outline: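 NHBE cells (≤6 passages) were seeded at 7,500 cells per well, treated with 3-fold serially diluted compound at 0.05% DMSO, then infected with RSV A2 at 1×10^4.5 TCID/mL. After 4 days at 37° C, viability was measured by CellTiter-Glo luminescence.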
# HRV16 = HRV16 HeLa EC50 (cytopathic effect in H1-HeLa cells)
# Protocol: H1-HeLa cells, cultured in complete DMEM medium containing 10% heat-inactivated FBS and 1% Penicillin/Streptomycin, were seeded in 96 well plates at 3000 cells/well one day prior to compound dosing and infection. The antiviral activity of each compound was measured in triplicate. Compounds were added directly to the cell cultures in serial 3-fold dilutions using the HP300 digital dispenser (Hewlett Packard, Palo Alto, CA) immediately prior to infection. The plates were transferred to BSL-2 containment and the appropriate dilution of virus stock, previously determined by titration and prepared in cell culture media, was added to test plates containing cells and serially diluted compounds. Each plate included 6 wells of infected untreated cells and 6 wells of uninfected cells that served as 0% and 100% virus inhibition control, respectively. Following the infection, test plates were incubated for 96 h in a tissue culture incubator set to 33° C./5% CO2. Following incubation, the H1-HeLa cells were removed from incubation and allowed to equilibrate to 25° C. Cell viability was determined by removing 100 μL of culture medium and adding 100 μL of Cell-Titer Glo viability reagent. The mixtures were incubated on a shaker for 10 minutes at 25° C., and the luminescence signal was quantified on an Envision luminescence plate reader.
# [1] = human respiratory syncytial virus, HEp-2, 96 h, Table 3, HEp-2 cells, RSV A2, 4 days
# [2] = human respiratory syncytial virus, HEp-2, Table 5 comparative activity, 2',3'-OH vs -OC(O)iPr
# [3] = Dengue virus, DENV2, Huh-7, 48 h, read-out: DENV-2 REP Huh7 EC50
# [4] = Dengue virus, DENV2, Huh-7, read-out: DENV Rep EC50
# [5] = human respiratory syncytial virus, NHBE, 96 h, Table 3, NHBE cells, RSV A2, 4 days
# [6] = human respiratory syncytial virus, NHBE, Table 5 comparative activity, 2',3'-OH vs -OC(O)iPr
# [7] = Table 3, HEp-2 cells, RSV A2, 4 days
# [8] = Table 3, Huh-7 DENV2 replicon cells, 48 hours, read-out: DENV-2 REP Huh7 EC50
# [9] = Table 3, NHBE cells, RSV A2, 4 days
Structure (SMILES),EC50 (RSV strain A2; [1]) [µM],EC50 (DENV2 replicon; [3]) [µM],EC50 (RSV A2; [5]) [µM],EC50 (RSV strain A2; [7]) [µM],EC50 (DENV2 replicon; [8]) [µM],EC50 (RSV A2; [9]) [µM],other results
"CC(C)C(=O)O[C@H]1[C@H](c2ccc3c(N)ncnn23)O[C@](C#N)(COP(=O)(N[C@@H](C)C(=O)OCC2CCOCC2)Oc2ccccc2)[C@H]1OC(=O)C(C)C (mixture of isomers) [Example 181, (2R,3S,4S,5S)-5-(4-aminopyrrolo[2,1-f][1,2,4]triazin-7-yl)-2-cyano-2-((((((S)-1-oxo-1-((tetrahydro-2H-pyran-4-yl)methoxy)propan-2-yl)amino)(phenoxy)phosphoryl)oxy)methyl)tetrahydrofuran-3,4-diyl bis(2-methylpropanoate)]",0.084,6.63,0.03,–,–,–,EC50 (RSV strain A2; [2]): 0.084 µM; EC50 (DENV2 replicon; [4]): 6.63 µM; EC50 (RSV A2; [6]): 0.03 µM
"CC(=O)O[C@H]1[C@H](c2ccc3c(N)ncnn23)O[C@](C#N)(COP(=O)(N[C@@H](C)C(=O)OC2CCOCC2)Oc2ccccc2)[C@H]1OC(C)=O (single isomer, unassigned) [Example 164]",–,–,–,1.69,> 100,0.148,–
"C[C@H](NP(=O)(OC[C@@]1(C#N)O[C@@H](c2ccc3c(N)ncnn23)[C@H](OC(=O)C(C)(C)C)[C@@H]1OC(=O)C(C)(C)C)Oc1ccccc1)C(=O)OC1CCOCC1 (single isomer, unassigned) [Example 172]",–,–,–,1.1,16.8,0.145,–
"CC(C)C(=O)O[C@H]1[C@H](c2ccc3c(N)ncnn23)O[C@](C#N)(COP(=O)(N[C@@H](C)C(=O)OCC(C)(C)O)Oc2ccccc2)[C@H]1OC(=O)C(C)C (single isomer, unassigned) [Example 257]",–,–,–,0.072,7.47,0.024,–
"CC(C)C(=O)O[C@H]1[C@H](c2ccc3c(N)ncnn23)O[C@](C#N)(COP(=O)(N[C@@H](C)C(=O)OCC(C)(C)O)Oc2ccccc2)[C@H]1OC(=O)C(C)C (single isomer, unassigned) [Example 258]",–,–,–,0.091,18.3,0.034,–
"CCC(=O)OC1[C@H](c2ccc3c(N)ncnn23)O[C@](C#N)(COP(=O)(N[C@@H](C)C(=O)OCC2CCC2)Oc2ccccc2)[C@H]1OC(=O)CC (stereo in doubt) [Example 91, (2R,3S,4R,5S)-5-(4-aminopyrrolo[2,1-f][1,2,4]triazin-7-yl)-2-cyano-2-((((((S)-1-(cyclobutylmethoxy)-1-oxopropan-2-yl)amino)(phenoxy)phosphoryl)oxy)methyl) tetrahydrofuran-3,4-diyl dipropionate]",0.067,10.2,0.023,–,–,–,–
"CC(=O)OC1[C@H](c2ccc3c(N)ncnn23)O[C@](C#N)(COP(=O)(N[C@@H](C)C(=O)OCC2CCC2)Oc2ccccc2)[C@H]1OC(C)=O (stereo in doubt) [Example 94, (2R,3S,4R,5S)-5-(4-aminopyrrolo[2,1-f][1,2,4]triazin-7-yl)-2-cyano-2-((((((S)-1-(cyclobutylmethoxy)-1-oxopropan-2-yl)amino)(phenoxy)phosphoryl)oxy)methyl) tetrahydrofuran-3,4-diyl diacetate]",0.189,13.7,0.041,–,–,–,–
"CC(=O)OC1[C@H](c2ccc3c(N)ncnn23)O[C@](C#N)(COP(=O)(N[C@@H](C)C(=O)OCC2CC2)Oc2ccccc2)[C@H]1OC(C)=O (stereo in doubt) [Example 101, (2R,3S,4R,5S)-5-(4-aminopyrrolo[2,1-f][1,2,4]triazin-7-yl)-2-cyano-2-((((((S)-1-(cyclopropylmethoxy)-1-oxopropan-2-yl)amino)(phenoxy)phosphoryl)oxy)methyl) tetrahydrofuran-3,4-diyl diacetate]",0.094,25.8,0.019,–,–,–,–
"CCC(=O)OC1[C@H](c2ccc3c(N)ncnn23)O[C@](C#N)(COP(=O)(N[C@@H](C)C(=O)OCC2CCN(CC(F)(F)F)CC2)Oc2ccccc2)[C@H]1OC(=O)CC (stereo in doubt) [Example 115, (2R,3S,4R,5S)-5-(4-aminopyrrolo[2,1-f][1,2,4]triazin-7-yl)-2-cyano-2-((((((S)-1-oxo-1-((1-(2,2,2-trifluoroethyl)piperidin-4-yl)methoxy)propan-2-yl)amino)(phenoxy)phosphoryl)oxy)methyl)tetrahydrofuran-3,4-diyl dipropionate]",0.112,20.4,0.022,–,–,–,–
"C[C@H](NP(=O)(OC[C@@]1(C#N)O[C@@H](c2ccc3c(N)ncnn23)[C@H](O)[C@@H]1O)Oc1ccccc1)C(=O)OCC1CCOCC1 (stereo partly drawn) [Example 20, (tetrahydro-2H-pyran-4-yl)methyl ((((2R,3S,4R,5S)-5-(4-aminopyrrolo[2,1-f][1,2,4]triazin-7-yl)-2-cyano-3,4-dihydroxytetrahydrofuran-2-yl)methoxy)(phenoxy)phosphoryl)-L-alaninate]",–,–,–,–,–,–,EC50 (RSV strain A2; [2]): 0.877 µM; EC50 (DENV2 replicon; [4]): > 50 µM; EC50 (RSV A2; [6]): 2.23 µM
"CCC(CC)COC(=O)[C@H](C)N[P@](=O)(OC[C@@]1(C#N)O[C@@H](c2ccc3c(N)ncnn23)[C@H](OC(C)=O)[C@@H]1OC(C)=O)Oc1ccccc1 [Example 88, (2R,3S,4S,5S)-5-(4-aminopyrrolo[2,1-f][1,2,4]triazin-7-yl)-2-cyano-2-((((S)-(((S)-1-(2-ethylbutoxy)-1-oxopropan-2-yl)amino)(phenoxy)phosphoryl)oxy)methyl) tetrahydrofuran-3,4-diyl diacetate]",0.108,8.82,0.042,–,–,–,–
CC(=O)O[C@H]1[C@H](c2ccc3c(N)ncnn23)O[C@](C#N)(CO[P@](=O)(N[C@@H](C)C(=O)OCC2CC2)Oc2ccccc2)[C@H]1OC(C)=O [Example 103],–,–,–,0.094,10.5,0.032,–
CC(=O)O[C@H]1[C@H](c2ccc3c(N)ncnn23)O[C@](C#N)(CO[P@@](=O)(N[C@@H](C)C(=O)OCC2CCOCC2)Oc2ccccc2)[C@H]1OC(C)=O [Example 111],–,–,–,0.873,> 100,0.044,–
"CC(C)C(=O)O[C@H]1[C@H](c2ccc3c(N)ncnn23)O[C@](C#N)(COP(=O)(N[C@@H](C)C(=O)OCC2CC2)Oc2ccccc2)[C@H]1OC(=O)C(C)C (stereo partly drawn) [Example 238, (2R,3S,4S,5S)-5-(4-aminopyrrolo[2,1-f][1,2,4]triazin-7-yl)-2-cyano-2-((((((S)-1-(cyclopropylmethoxy)-1-oxopropan-2-yl)amino)(phenoxy)phosphoryl)oxy)methyl) tetrahydrofuran-3,4-diyl bis(2-methylpropanoate)]",–,–,–,0.027,–,0.028,"EC50 (HRV16; Table 3; H1-HeLa cells, 96 h; read-out: HRV16 HeLa EC50): 0.099 µM"
"CCC(CC)COC(=O)[C@H](C)NP(=O)(O)OC[C@@]1(C#N)O[C@@H](c2ccc3c(N)ncnn23)[C@H](OC(=O)C(C)C)[C@@H]1OC(=O)C(C)C [Example 239, ((2R,3S,4S,5S)-5-(4-aminopyrrolo[2,1-f][1,2,4]triazin-7-yl)-2-cyano-3,4-bis(isobutyryloxy)tetrahydrofuran-2-yl)methyl ((S)-1-(2-ethylbutoxy)-1-oxopropan-2-yl)phosphoramidate]",> 9.83,–,2.26,–,–,–,"EC50 (HRV16; 96 h, Table 3; H1-HeLa cells, 96 h; read-out: HRV16 HeLa EC50): > 50 µM"
